{"source": "patent US9555130B2", "about": "“Compositions and methods for in vivo imaging of myelin in the peripheral nervous system” (Case Western Reserve University, priority 2010, dated 2017)", "key": {"[1]": {"assay": "Excitation and emission spectra (Cary Eclipse fluorescent spectrophotometer)", "type": "physicochemical", "conditions": "1 μM in DMSO", "protocol": "FIG. 2 illustrates excitation and emission spectra of (E,E)-1,4-bis(4-aminostyryl)-2-dimethoxy-benzene (BDB) (1 μM in […]). Excitation spectra: emission at 510 nm (range 300-500 nm), bandwidth at 5 nm, scan at 120 nm/mm, integration time 0.5 sec. and maximal excitation wavelength at 426 nm. Emission spectra: excitation at 426 nm (range 430-650 nm), bandwidth at 5 nm, scan at 120 nm/min. integration time of 0.5 sec. and maximal emission wavelength at 506 nm.\nExcitation and emission spectra of BDB (1 μM in DMSO) recorded using a Cary Eclipse fluorescent spectrophotometer (Variant Inc.; Palo Alto, Calif.) are shown in FIG. 2. Maximal excitation and emission peaks were found at 426 nm and 506 nm, respectively."}, "[2]": {"test_system": "sciatic nerve (PNS myelin)", "assay": "In vitro staining of sciatic nerve tissue sections, fluorescent microscopy", "design": "species or system wild type mouse", "conditions": "tissue section of sciatic nerve with surrounding muscle; confirmed by Black and Gold staining of adjacent section", "excerpt": "In Vitro Staining Procedure: (1) Removal of wild type mouse sciatic nerve imbedded in muscle; (2) Sectioning of muscle with nerve with cryostat; (3) Chemical staining of tissue section of sciatic nerve with muscle tissue surrounded it; (4) Observation under fluorescent microscopy; (5) A Black and Gold staining of adjacent tissue section; and (6) Observation under regular microscope.\nThe staining of the sciatic nerve was confirmed by the Black and Gold staining of the adjacent tissue section (see FIG. 4)."}, "[3]": {"test_system": "sciatic nerve (PNS myelin)", "assay": "Ex vivo staining of sciatic nerve after tail vein injection, microscope and FLI", "type": "in vivo, wild type mouse", "conditions": "post tail vein injection; tissue section under microscope", "excerpt": "Ex Vivo Staining Procedure: (1) Injection of BDB via tail vein in wild type mouse; (2) Removal of sciatic nerve imbedded in muscle from right side; (3) Sectioning of muscle with nerve; (4) Observation of tissue under microscope to check staining; (5) Removal of left sciatic nerve from muscle; and (6) Observation of fluorescent in FLI machine.\nAn FLI machine picked up fluorescence from sciatic nerve placed in a tube with 4% paraformaldehyde (PFA) solution (FIG. 6)."}, "[4]": {"assay": "Solubility of BDB in organic solvents", "type": "physicochemical"}, "CNS myelin": {"test_system": "CNS myelin", "conditions": "previously shown; cited from earlier work"}, "[5]": {"test_system": "sciatic nerve (PNS myelin)", "assay": "In vivo imaging of sciatic nerve by multiphoton microscope", "design": "species or system wild type mouse", "conditions": "live anesthetized mouse, exposed sciatic nerve", "excerpt": "In Vivo Staining Procedure: (1) Shave fur off region where sciatic nerve is located; (2) Cut soft tissue and muscle tissue covering sciatic nerve using surgical scissors; (3) Place animal under multiphoton microscope while anesthetized with isoflurane gas; and (4) Take live images of nerve."}}, "data": [{"smiles": "COc1cc(/C=C/c2ccc(N)cc2)c(OC)cc1/C=C/c1ccc(N)cc1", "note": "[BDB, (E,E)-1,4-bis(4′-aminostyryl)-2-dimethoxy-benzene]", "values": [{"measurement": "maximal emission peak", "setting": "[1]", "value": 506, "unit": "nm"}, {"measurement": "maximal excitation peak", "setting": "[1]", "value": 426, "unit": "nm"}, {"measurement": "staining of sciatic nerve in vitro", "setting": "[2]", "value": "selectively stained the sciatic nerve"}, {"measurement": "staining of sciatic nerve ex vivo", "setting": "[3]", "value": "successfully stained"}, {"measurement": "solubility", "setting": "[4]", "value": "soluble in CH2Cl2, DMSO, and in most other organic solvents"}, {"measurement": "binding to myelin and retention in CNS white matter", "setting": "CNS myelin", "value": "selectively binds to myelin and is retained in CNS white matter"}, {"measurement": "staining of intact myelin sheaths in peripheral nervous system tissue in vivo", "setting": "[5]", "value": "selectively stains intact myelin sheaths"}]}]}
